Data from ChEMBL document CHEMBL5647692, “The novel dual PI3K/mTOR inhibitor NVP-BGT226 displays cytotoxic activity in both normoxic and hypoxic hepatocarcinoma cells” (Oncotarget, 2015).
The source made the active and inactive calls. The calls are words filed in the database; no cut-off is given here.

Legend:
Mahlavu [1] = test: Cytotoxicity against human Mahlavu cells assessed as reduction in cell viability at 0.5 uM incubated for 24 hrs in presence of 3-Methyladenine under hypoxia condition by MTT assay; format: functional, cell-based
SNU-449 [2] = test: Induction of apoptosis in human SNU-449 cells assessed as late apoptotic cells at 1.5 uM incubated for 24 hrs by Annexin-V/7-AAD staining based muse cell analyzer method (reference value: 5.03 %); format: functional
SNU-449 [3] = test: Induction of apoptosis in human SNU-449 cells assessed as early apoptotic cells at 1.5 uM incubated for 24 hrs by Annexin-V/7-AAD staining based muse cell analyzer method (reference value: 3.95 %); format: functional
SNU-475 [4] = test: Induction of apoptosis in human SNU-475 cells assessed as cleaved PARP level at 0.5 uM incubated for 24 hrs by Western blotting analysis; format: functional, cell-based
Hep 3B2 [5] = test: Cytotoxicity against human Hep3B cells assessed as reduction in cell viability at 0.5 to 5 uM incubated for 24 hrs by MTT assay; format: functional, cell-based; conditions: dose 0.5-5 µM
Mahlavu [6] = test: Induction of autophagy in human Mahlavu cells assessed as increased expression of LC3A/B II level incubated for 24 hrs under hypoxia condition by Western blot analysis; format: functional, cell-based; conditions: dose 0.1-0.5 µM
HepG2 [7] = test: Cytotoxicity against human HepG2 cells assessed as reduction in cell viability at 0.5 to 5 uM incubated for 24 hrs by MTT assay; format: functional, cell-based; conditions: dose 0.5-5 µM
Mahlavu [8] = test: Cytotoxicity against human Mahlavu cells assessed as reduction in cell viability at 0.5 uM incubated for 24 hrs in presence of chloroquine by MTT assay; format: functional, cell-based
HepG2 [9] = test: Cytotoxicity against human HepG2 cells assessed as reduction in cell viability at 0.5 uM incubated for 24 hrs in presence of 3-Methyladenine by MTT assay; format: functional, cell-based
[10] = Inhibition of PI3K/Akt/mTOR signaling pathway in human HepG2 cells assessed as reduction in phosphorylation of Akt incubated for 1 hr under normoxia condition by Western blotting analysis; format: cell-based; conditions: dose 0.25-1 µM
[11] = Inhibition of PI3K/Akt/mTOR signaling pathway in human SNU-449 cells assessed as reduction in phosphorylation of Akt incubated for 1 hr under normoxia condition by Western blotting analysis; format: cell-based; conditions: dose 0.25-1 µM
Hep 3B2 [12] = test: Cytotoxicity against human Hep3B cells assessed as reduction in cell viability incubated for 24 hrs under hypoxia condition by MTT assay; format: functional, cell-based
Mahlavu [13] = test: Induction of autophagy in human Mahlavu cells assessed as increase in lipidation of LC3I to LC3II at 0.5 uM incubated for 24 hrs by Western blot analysis; format: functional, cell-based
Mahlavu [14] = test: Cytotoxicity against human Mahlavu cells assessed as reduction in cell viability at 0.5 to 5 uM incubated for 24 hrs by MTT assay; format: functional, cell-based; conditions: dose 0.5-5 µM
Hep 3B2 [15] = test: Induction of apoptosis in human Hep3B cells incubated for 24 hrs by Annexin-V/7-AAD staining based muse cell analyzer method; format: functional; conditions: dose 0.01-0.5 µM
[16] = Inhibition of PI3K/Akt/mTOR signaling pathway in human Mahlavu cells assessed as reduction in phosphorylation of GSK3 alpha/beta incubated for 1 hr under normoxia condition by Western blotting analysis; format: cell-based; conditions: dose 0.25-1 µM
Mahlavu [17] = test: Cytotoxicity against human Mahlavu cells assessed as reduction in cell viability incubated for 48 hrs by MTT assay; format: functional, cell-based
[18] = Inhibition of PI3K/Akt/mTOR signaling pathway in human Mahlavu cells assessed as reduction in phosphorylation of Akt at 1 to 10 nM incubated for 1 hr under hypoxia condition by Western blotting analysis; format: cell-based; conditions: dose 1-10 nM
Mahlavu [19] = test: Induction of cell cycle arrest in human Mahlavu cells assessed as decrease in accumulation of cells in S phase incubated at 0.01 to 0.1 uM for 24 hrs by propidium iodide staining based muse cell analysis; format: functional; conditions: dose 0.01-0.1 µM
SNU-475 [20] = test: Cytotoxicity against human SNU-475 cells assessed as reduction in cell viability incubated for 24 hrs under normoxia condition by MTT assay; format: functional, cell-based
SNU-475 [21] = test: Cytotoxicity against human SNU-475 cells assessed as reduction in cell viability incubated for 24 hrs under hypoxia condition by MTT assay; format: functional, cell-based
[22] = Inhibition of PI3K/Akt/mTOR signaling pathway in human SNU-475 cells assessed as reduction in S6 phosphorylation at 1 to 10 nM incubated for 1 hr under normoxia condition by Western blotting analysis; format: cell-based; conditions: dose 1-10 nM
[23] = Inhibition of PI3K/Akt/mTOR signaling pathway in human Mahlavu cells assessed as reduction in S6 phosphorylation at 1 to 10 nM incubated for 1 hr under hypoxia condition by Western blotting analysis; format: cell-based; conditions: dose 1-10 nM
Mahlavu [24] = test: Induction of apoptosis in human Mahlavu cells assessed as late apoptotic cells at IC50 incubated for 24 hrs in presence of Z-VAD-fmk by Annexin-V/7-AAD staining based muse cell analyzer method (reference value: 2.24 %); format: functional
[25] = Inhibition of PI3K/Akt/mTOR signaling pathway in human SNU-449 cells assessed as reduction in phosphorylation of mTORC1 substrate S6 incubated for 1 hr under normoxia condition by Western blotting analysis; format: cell-based; conditions: dose 0.25-1 µM
[26] = Inhibition of PI3K/Akt/mTOR signaling pathway in human Hep3B cells assessed as reduction in phosphorylation of Akt incubated for 1 hr under normoxia condition by Western blotting analysis; format: cell-based; conditions: dose 0.25-1 µM
Mahlavu [27] = test: Induction of autophagy in human Mahlavu cells assessed as reduction in SQSTM1/p62 level by Western blot analysis; format: functional, cell-based; conditions: dose 0.1-0.5 µM
[28] = Inhibition of PI3K/Akt/mTOR signaling pathway in human HepG2 cells assessed as reduction in phosphorylation of GSK3 alpha/beta incubated for 1 hr under normoxia condition by Western blotting analysis; format: cell-based; conditions: dose 0.25-1 µM
Mahlavu [29] = test: Induction of apoptosis in human Mahlavu cells incubated for 24 hrs by Annexin-V/7-AAD staining based muse cell analyzer method; format: functional; conditions: dose 0.01-0.5 µM
SNU-449 [30] = test: Induction of apoptosis in human SNU-449 cells assessed as viable cells at 1.5 uM incubated for 24 hrs by Annexin-V/7-AAD staining based muse cell analyzer method (reference value: 90.07 %); format: functional; conditions: read-out: Activity
[31] = Inhibition of PI3K/Akt/mTOR signaling pathway in human Hep3B cells assessed as reduction in phosphorylation of mTORC1/2 incubated for 1 hr under normoxia condition by Western blotting analysis; format: cell-based; conditions: dose 0.25-1 µM
[32] = Inhibition of PI3K/Akt/mTOR signaling pathway in human Hep3B cells assessed as reduction in phosphorylation of GSK3 alpha/beta incubated for 1 hr under normoxia condition by Western blotting analysis; format: cell-based; conditions: dose 0.25-1 µM
[33] = Inhibition of PI3K/Akt/mTOR signaling pathway in human Mahlavu cells assessed as reduction in phosphorylation of mTORC1 substrate S6 incubated for 1 hr under normoxia condition by Western blotting analysis; format: cell-based; conditions: dose 0.25-1 µM
SNU-449 [34] = test: Induction of apoptosis in human SNU-449 cells assessed as late apoptotic cells at IC50 concentration incubated for 24 hrs in presence of Z-VAD-fmk by Annexin-V/7-AAD staining based muse cell analyzer method (reference value: 5.03 %); format: functional
SNU-475 [35] = test: Cytotoxicity against human SNU-475 cells assessed as reduction in cell viability incubated for 48 hrs by MTT assay; format: functional, cell-based; conditions: SNU-475, 48 h
Mahlavu [36] = test: Cytotoxicity against human Mahlavu cells assessed as reduction in cell viability at 0.5 uM incubated for 24 hrs in presence of 3-Methyladenine by MTT assay; format: functional, cell-based

Question: With `COc1ccc(-c2ccc3ncc4c(c3c2)n(-c2ccc(N3CCNCC3)c(C(F)(F)F)c2)c(=O)n4C)cn1` [BGT-226 FREE BASE] as the compound, how does the Activity (Mahlavu [1]) read?
Answer: Active

Question: What about the Activity (SNU-449 [2]) of the same compound?
Answer: 32.14%

Question: What about the Activity (SNU-449 [3]) of the same compound?
Answer: 18.2%

Question: What about the Activity (SNU-475 [4]) of the same compound?
Answer: Active

Question: What about the Activity (Hep 3B2 [5]) of the same compound?
Answer: Active

Question: What about the Activity (Mahlavu [6]) of the same compound?
Answer: Dose-Dependent Effect

Question: What about the Activity (HepG2 [7]) of the same compound?
Answer: Active

Question: What about the Activity (Mahlavu [8]) of the same compound?
Answer: Active

Question: What about the Activity (HepG2 [9]) of the same compound?
Answer: Active

Question: What about the inhibition [10] of the same compound?
Answer: Dose-Dependent Effect

Question: And the inhibition [11]?
Answer: Dose-Dependent Effect

Question: And the Activity (Hep 3B2 [12])?
Answer: Active

Question: And the Activity (Mahlavu [13])?
Answer: Active

Question: And the Activity (Mahlavu [14])?
Answer: Active

Question: And the Activity (Hep 3B2 [15])?
Answer: Dose-Dependent Effect

Question: And the inhibition [16]?
Answer: Dose-Dependent Effect

Question: And the IC50 (Mahlavu [17])?
Answer: 550 nM

Question: And the inhibition [18]?
Answer: Active

Question: And the Activity (Mahlavu [19])?
Answer: Active

Question: And the Activity (SNU-475 [20])?
Answer: Active

Question: What about the Activity (SNU-475 [21]) of the same compound?
Answer: Active

Question: What about the inhibition [22] of the same compound?
Answer: Active

Question: What about the inhibition [23] of the same compound?
Answer: Active

Question: What about the Activity (Mahlavu [24]) of the same compound?
Answer: 5.85%

Question: And the inhibition [25]?
Answer: Dose-Dependent Effect

Question: What about the inhibition [26] of the same compound?
Answer: Dose-Dependent Effect

Question: And the Activity (Mahlavu [27])?
Answer: Dose-Dependent Effect

Question: What about the inhibition [28] of the same compound?
Answer: Dose-Dependent Effect

Question: What about the Activity (Mahlavu [29]) of the same compound?
Answer: Dose-Dependent Effect

Question: What about the viability at 1.5 µM (SNU-449 [30]) of the same compound?
Answer: 48.6%

Question: What about the inhibition [31] of the same compound?
Answer: Dose-Dependent Effect

Question: What about the inhibition [32] of the same compound?
Answer: Dose-Dependent Effect

Question: And the inhibition [33]?
Answer: Dose-Dependent Effect

Question: What about the Activity (SNU-449 [34]) of the same compound?
Answer: 4.05%

Question: What about the IC50 (SNU-475 [35]) of the same compound?
Answer: 1010 nM

Question: And the Activity (Mahlavu [36])?
Answer: Active
